Source: article PMC9271885 (eBioMedicine, 2022)
Where “and” joins values, the source holds several entries; their conditions need not be identical. Identical values can stand only once. Like-named read-outs stand apart in the source and are kept apart here.

Test: Quantification of TIZ in plasma, lung and nasal turbinates of hamsters (HPLC-UV)
Assay type: in vivo, Syrian hamsters
Conditions: for L/p ratio (%) / TIZ concentration Lung (µM/g) / TIZ concentration Lung: individual values; for Tizoxanide concentration in lungs / Lung to plasma ratio / Tizoxanide concentration in blood / concentration at 12 h: individual animals
Protocol: Quantification of TIZ in plasma and lung tissues was performed by high-performance liquid chromatography with UV detection method (Alliance 2695, Waters, USA) with a lower limit of quantification of 0.01µg/mL. The mobile phase consisted of 0.1% FA in water and 0.1% of FA in ACN (65:35, v/v). The chromatographic separation was achieved using an isocratic mode with an Xbridge BEH C18 2.5μm 4.6 × 100mm column. Peak area was quantified at 340nm using the Waters 2489 detector. TIZ was extracted by a simple protein precipitation method, using acetonitrile for plasma and ice-cold acetonitrile for clarified lung homogenates. Briefly, 200µL of samples matrix was added to 1000µL of acetonitrile solution containing the internal standard (thiopental), then vortexed for 2min followed by centrifugation for 10min at 4°C. The supernatant medium was evaporated under vacuum, then transferred to a 1.5mL Eppendorf tube. The dried residue was reconstituted with 100µl of ACN:water (50:50), vortexed for 30 seconds and centrifuged again for 10min at 4°C. The supernatant was transferred to an autosampler and 50µL was injected.
We used tissues from infected animals sacrificed at 3 dpi following multiple administration (animals from Figure 3); an additional group of uninfected animals treated with a single dose of 13.5mg was used as control. TIZ concentration in plasma and in lung was quantified at 1, 2 and 4 hours post treatment for the single dose analysis (group of 3 animals) and at 12 hours after the last administration for the multiple dose analysis (group of 6 animals).

[1] = multiple dose NTZ 500mg/kg/day BID oral, at 3 dpi, 12 h (trough)
[2] = multiple dose NTZ 750mg/kg/day TID oral, at 3 dpi, 12 hours (trough)
[3] = multiple dose, infected animals, nitazoxanide per os 500 mg/kg/day BID, 12h post-administration
[4] = multiple dose, infected animals, nitazoxanide per os 750 mg/kg/day TID, 12h post-administration
[5] = single dose nitazoxanide 13.5mg, uninfected animals, 1h post-administration
[6] = single dose nitazoxanide 13.5mg, uninfected animals, 2h post-administration
[7] = single dose nitazoxanide 13.5mg, uninfected animals, 4h post-administration
[8] = single oral dose 13.5mg NTZ, uninfected hamsters, 1 h post-treatment
[9] = single oral dose 13.5mg NTZ, uninfected hamsters, 2 h post-treatment
[10] = single oral dose 13.5mg NTZ, uninfected hamsters, 4 h post-treatment

## O=C(Nc1ncc([N+](=O)[O-])s1)c1ccccc1O [TIZ, tizoxanide]
[1]
  L/p ratio (%): 2.7% and 32.8%
  TIZ concentration Lung (µM/g): 0.21 µM/g
[2]
  L/p ratio (%): 2.9% and 6.3%
  TIZ concentration Lung (µM/g): 0.28 µM/g and 0.60 µM/g
Multiple dose, infected animals, nitazoxanide IN 2,8 mg/kg/day TID, 12h post-administration
  Tizoxanide concentration in lungs: 0.39 µM/g of lung and 11.3 ng/mL and 110 ng/g of lung and 0.41 µM/g of lung
[3]
  Lung to plasma ratio: 2.7% and 32.8%
  Tizoxanide concentration in blood: 40 ng/mL and 159 ng/mL and 2131 ng/mL and 2192 ng/mL and 171 ng/mL
  Tizoxanide concentration in lungs: 0.21 µM/g of lung and 10.6 ng/mL and 56 ng/g of lung
Multiple dose, infected animals, nitazoxanide per os 500 mg/kg/day BID, 12h post-administration, read-out: Tizoxanide concentration in blood
  concentration at 12 h: 0.15 µM and 0.60 µM and 8.03 µM and 8.26 µM and 0.64 µM
Multiple dose, infected animals, nitazoxanide per os 500 mg/kg/day BID, 12h post-administration, read-out: Tizoxanide concentration in lungs
  concentration at 12 h: 0.04 µM
[4]
  Lung to plasma ratio: 2.9% and 6.3%
  Tizoxanide concentration in blood: 40 ng/mL and 2494 ng/mL and 79 ng/mL and 2205 ng/mL and 1637 ng/mL and 2500 ng/mL
  Tizoxanide concentration in lungs: 9.7 ng/mL and 73 ng/g of lung and 0.28 µM/g of lung and 21.0 ng/mL and 158 ng/g of lung and 0.60 µM/g of lung
Multiple dose, infected animals, nitazoxanide per os 750 mg/kg/day TID, 12h post-administration, read-out: Tizoxanide concentration in blood
  concentration at 12 h: 0.15 µM and 9.40 µM and 0.30 µM and 8.31 µM and 6.17 µM and 9.43 µM
Multiple dose, infected animals, nitazoxanide per os 750 mg/kg/day TID, 12h post-administration, read-out: Tizoxanide concentration in lungs
  concentration at 12 h: 0.08 µM
[5]
  Lung to plasma ratio: 4.8% and 2.2%
  Tizoxanide concentration in blood: 3319 ng/mL and 10008 ng/mL and 2151 ng/mL
  Tizoxanide concentration in lungs: 0.61 µM/g of lung and 26.7 ng/mL and 224 ng/g of lung and 0.84 µM/g of lung
Single dose nitazoxanide 13.5mg, uninfected animals, 1h post-administration, read-out: Tizoxanide concentration in blood
  concentration at 12 h: 12.51 µM and 37.73 µM and 8.11 µM
Single dose nitazoxanide 13.5mg, uninfected animals, 1h post-administration, read-out: Tizoxanide concentration in lungs
  concentration at 12 h: 0.10 µM
[6]
  Tizoxanide concentration in blood: 1477 ng/mL and 3758 ng/mL and 4927 ng/mL
  Tizoxanide concentration in lungs: 0.50 µM/g of lung
Single dose nitazoxanide 13.5mg, uninfected animals, 2h post-administration, read-out: Tizoxanide concentration in blood
  concentration at 12 h: 5.57 µM and 14.17 µM and 18.58 µM
[7]
  Tizoxanide concentration in blood: 344 ng/mL and 666 ng/mL and 1459 ng/mL
  Tizoxanide concentration in lungs: 0.23 µM/g of lung
Single dose nitazoxanide 13.5mg, uninfected animals, 4h post-administration, read-out: Tizoxanide concentration in blood
  concentration at 12 h: 1.30 µM and 2.51 µM and 5.50 µM
[8]
  L/p ratio (%): 4.8% and 2.2%
  TIZ concentration Lung: 0.16 µg/g and 0.22 µg/g
  TIZ concentration Lung (µM/g): 0.61 µM/g and 0.84 µM/g
[9]
  TIZ concentration Lung: 0.13 µg/g
  TIZ concentration Lung (µM/g): 0.50 µM/g
[10]
  TIZ concentration Lung: 0.06 µg/g
  TIZ concentration Lung (µM/g): 0.23 µM/g
